Results taken from article PMC9179336, “Therapeutic Validation of GEF-H1 Using a De Novo Designed Inhibitor in Models of Retinal Disease” (Cells, 2022).
Where no end group is shown, it is not given here.

Tests used:
[1] = system: RPE cells (TGFβ-stimulated); test: RPE cell scratch wound migration assay; format: cell-based, porcine; settings: 16 h
[2] = system: HEK293 cells; test: Caspase 3/7 activity (Apo-ONE), HEK293 cells; format: cell-based; settings: overnight, increasing concentrations
Protocol: (§1) HEK293 and MDCK cells were seeded in triplicate wells and incubated overnight with the indicated concentration of TAT-P5 or TAT-F1. The next day 30 μL of medium was removed from each well and incubated with 30μL of CytoTox-ONE (Promega) reagent for 40 min. Fluorescence was then measured to assess LDH release. To assess Caspase 3/7 activity cells were assayed using Apo-ONE Homogenous Caspase-3/7 assay (Promega) according to manufactures instructions.
(§2) We next tested whether the inhibitors are toxic to cultured cells. MDCK and HEK293 cells were incubated with increasing concentrations of either TAT-F1 or TAT-P5 overnight before analysis of LDH release as a measure of necrosis or Caspase 3/7 activity to assess induction of apoptosis (Figure S2).
(§3) MDCK (A) and HEK 293 (B) cells were incubated overnight with TAT-F1 or TAT-P5 at the concentrations indicated. Cell toxicity was then assessed by measuring caspase 3/7 activity in cell extracts and release of LDH into the medium. No significant cell toxicity was observed.
(§4) (1 picture or pasted object on this page, not shown here)

[3] = system: HEK293 cells; test: LDH release (CytoTox-ONE), HEK293 cells; format: cell-based; settings: overnight, increasing concentrations
Protocol: as §1, §2, §3, §4

[4] = system: MDCK cells; test: LDH release (CytoTox-ONE), MDCK cells; format: cell-based; settings: overnight, increasing concentrations
Protocol: as §1, §2, §3, §4

[5] = system: MDCK cells; test: Caspase 3/7 activity (Apo-ONE), MDCK cells; format: cell-based; settings: overnight, increasing concentrations
Protocol: as §1, §2, §3, §4

GRKKRRQRRRPWQDYIAEVPRSDYDLRPTGQD [TAT-scr, scrambled version of TAT-P5, negative control peptide]
RPE cell migration (scratch closure), in words [1]: had no effect

GRKKRRQRRRPWQGQEDYDRLRPASYPDTDVI [TAT-P5]
cytotoxicity, Caspase 3/7 activity (apoptosis), HEK293 [2]: Neither assay revealed an increase in cytotoxicity | cytotoxicity, LDH release (necrosis), HEK293 [3]: Neither assay revealed an increase in cytotoxicity | cytotoxicity, LDH release (necrosis), MDCK [4]: Neither assay revealed an increase in cytotoxicity | cytotoxicity, Caspase 3/7 activity (apoptosis), MDCK [5]: Neither assay revealed an increase in cytotoxicity
